# Experiments:
# [1] = target: JMJD2C (Homo sapiens (Human), UniProt Q9H3R0); experiment: JMJD2C in vitro enzyme inhibition assay (TR-FRET); format: biochemical; conditions: 0.3 nM JMJD2C, 300 nM H3K9me3-biotin peptide, 2 μM alpha-ketoglutaric acid, 30 minutes
# In short: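 Baculovirus-expressed JMJD2C (aa 2-372), 0.3 nM, with 300 nM biotin-H3K9me3 peptide and 2 μM alpha-ketoglutarate in HEPES pH 7.3 with ascorbate and Fe(II), 30 min at room temperature, 11-point inhibitor series. H3K9me2 product detected by TR-FRET (Eu-antibody/streptavidin-APC, 665/615 ratio); IC50 fitted.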
# [2] = test system: KYSE-150 esophageal carcinoma cell line; experiment: In vitro cell-based assay: BrdU incorporation cell proliferation ELISA; parameters: species or system human; conditions: Homo sapiens, KYSE-150 cells, 168 hours compound incubation, read-out: Cellular IC50
# In short: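 KYSE-150 cells (SMAD4 mut, TP53 mut) seeded at 2,000 cells/well, treated next day with 11-point dilutions (100 μM to 2 nM final) for 168 h. Proliferation read by 2 h BrdU labelling and colorimetric anti-BrdU ELISA at 450 nm; IC50 from curve fit.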
# Chain of JMJD2C (Q9H3R0 2-372): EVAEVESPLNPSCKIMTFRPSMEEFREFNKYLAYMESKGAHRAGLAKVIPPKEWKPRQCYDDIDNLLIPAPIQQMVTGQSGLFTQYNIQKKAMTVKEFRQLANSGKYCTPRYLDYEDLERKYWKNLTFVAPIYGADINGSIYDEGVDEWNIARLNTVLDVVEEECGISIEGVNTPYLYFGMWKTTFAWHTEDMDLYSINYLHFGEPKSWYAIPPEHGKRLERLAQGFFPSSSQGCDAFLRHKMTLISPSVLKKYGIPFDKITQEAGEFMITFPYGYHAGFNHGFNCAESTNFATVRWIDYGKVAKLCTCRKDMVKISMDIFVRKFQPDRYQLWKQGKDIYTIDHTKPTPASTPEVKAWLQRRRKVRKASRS
IC50 [1] [nM],IC50 [2] [nM],Structure (SMILES)
≤ 100,> 10000,"CC(CCN(C)C)c1ccc(N(C)c2ccc(Oc3nc(O)c4ccncc4n3)cc2)cc1 (centres unmarked) [Example 115, 2-(4-{[4-(3-dimethylamino-1-methyl-propyl)-phenyl]-methyl-amino}-phenoxy)-pyrido[3,4-d]pyrimidin-4-ol]"
1000 to 10000,1000 to 10000,"CN(c1ccc(Oc2nc(O)c3ccncc3n2)cc1)c1cccc(Cl)c1 [Example 95, 2-[4-(3-chloro-N-methylanilino)phenoxy]pyrido[3,4-d]pyrimidin-4-ol]"
100 to 1000,100 to 1000,"Cc1ccc(N(C)c2ccc(Oc3nc(O)c4ccncc4n3)cc2)cc1F [Example 53, 2-[4-(3-fluoro-N,4-dimethylanilino)phenoxy]pyrido[3,4-d]pyrimidin-4-ol]"
100 to 1000,≤ 100,"CC(c1ccc(N(C)c2ccc(Oc3nc(O)c4ccncc4n3)cc2)cc1)C(F)(F)F (centres unmarked) [Example 108, 2-[4-[N-methyl-4-(1,1,1-trifluoropropan-2-yl)anilino]phenoxy]pyrido[3,4-d]pyrimidin-4-ol]"
≤ 100,> 10000,"CN(C)c1ccc(N(C)c2ccc(Oc3nc(O)c4ccncc4n3)cc2)cc1 [Example 44, 2-[4-[4-(dimethylamino)-N-methylanilino]phenoxy]pyrido[3,4-d]pyrimidin-4-ol]"
≤ 100,> 10000,"COCCNCC(C)c1ccc(N(C)c2ccc(Oc3nc(O)c4ccncc4n3)cc2)cc1 (centres unmarked) [Example 100, 2-[4-[4-[1-(2-methoxyethylamino)propan-2-yl]-N-methylanilino]phenoxy]pyrido[3,4-d]pyrimidin-4-ol]"
100 to 1000,1000 to 10000,"CC(C)c1ccc(N(C)c2ccc(Oc3nc(O)c4ccncc4n3)cc2)cn1 [Example 109, 2-[4-[methyl-(6-propan-2-ylpyridin-3-yl)amino]phenoxy]pyrido[3,4-d]pyrimidin-4-ol]"
100 to 1000,100 to 1000,"CC(C)Oc1ccc(N(C)c2ccc(Oc3nc(O)c4ccncc4n3)cc2)cc1 [Example 111, 2-[4-(N-methyl-4-propan-2-yloxyanilino)phenoxy]pyrido[3,4-d]pyrimidin-4-ol]"
≤ 100,> 10000,"CNCC(C)c1ccc(N(C)c2ccc(Oc3nc(O)c4ccncc4n3)cc2)cc1 (centres unmarked) [Example 70, 2-[4-[N-methyl-4-[1-(methylamino)propan-2-yl]anilino]phenoxy]pyrido[3,4-d]pyrimidin-4-ol]"
1000 to 10000,≤ 100,"CC[C@@H](C)c1ccc(N(C)c2ccc(Oc3nc(O)c4ccncc4n3)cc2)cc1 [Example 78, 2-[4-[4-[(2R)-butan-2-yl]-N-methylanilino]phenoxy]pyrido[3,4-d]pyrimidin-4-ol]"
1000 to 10000,≤ 100,"CC(C)COc1ccc(N(C)c2ccc(Oc3nc(O)c4ccncc4n3)cc2)cc1 [Example 74, 2-[4-[N-methyl-4-(2-methylpropoxy)anilino]phenoxy]pyrido[3,4-d]pyrimidin-4-ol]"
1000 to 10000,100 to 1000,"CN(c1ccc(Oc2nc(O)c3ccncc3n2)cc1)c1ccc(N2CCCC2)cc1 [Example 49, 2-[4-(N-methyl-4-pyrrolidin-1-ylanilino)phenoxy]pyrido[3,4-d]pyrimidin-4-ol]"
1000 to 10000,1000 to 10000,"CCc1ccc(N(C)c2ccc(Oc3nc(O)c4ccncc4n3)cc2)cc1OCCOC [Example 66, 2-[4-[4-ethyl-3-(2-methoxyethoxy)-N-methylanilino]phenoxy]pyrido[3,4-d]pyrimidin-4-ol]"

# The remaining lines, values behind:
Structure (SMILES),IC50 [1] [nM],IC50 [2] [nM]
"CN(c1ccc(Oc2nc(O)c3ccncc3n2)cc1)c1cccc(C(F)(F)F)c1 [Example 86, 2-[4-[N-methyl-3-(trifluoromethyl)anilino]phenoxy]pyrido[3,4-d]pyrimidin-4-ol]",1000 to 10000,100 to 1000
"Oc1nc(Oc2ccc3c(ccn3CCc3ccccc3)c2)nc2cnccc12 [Example 3, 2-(1-Phenethyl-1H-indol-5-yloxy)-pyrido[3,4-d]pyrimidin-4-ol]",100 to 1000,100 to 1000
"CCc1ccc(N(C)c2ccc(Oc3nc(O)c4ccncc4n3)cc2)cc1OCCN(C)C [Example 65, 2-[4-[3-[2-(dimethylamino)ethoxy]-4-ethyl-N-methylanilino]phenoxy]pyrido[3,4-d]pyrimidin-4-ol]",≤ 100,> 10000
"CN(c1ccc(Oc2nc(O)c3ccncc3n2)cc1)c1ccc(C2CCOCC2)cc1 [Example 99, 2-[4-[N-methyl-4-(oxan-4-yl)anilino]phenoxy]pyrido[3,4-d]pyrimidin-4-ol]",100 to 1000,≤ 100
"CN(c1ccc(Oc2nc(O)c3ccncc3n2)cc1)c1cccc(N2CCCC2)c1 [Example 48, 2-[4-(N-methyl-3-pyrrolidin-1-ylanilino)phenoxy]pyrido[3,4-d]pyrimidin-4-ol]",100 to 1000,> 10000
"CN(CCc1ccccc1)c1ccc(Oc2nc(O)c3ccncc3n2)cc1 [Example 13, 2-{4-[Methyl(2-phenylethyl)amino]phenoxy}pyridino[3,4-d]pyrimidin-4-ol]",100 to 1000,1000 to 10000
"Oc1nc(Oc2ccc3c(ccn3C3CCNCC3)c2)nc2cnccc12 [Example 104, 2-(1-piperidin-4-ylindol-5-yl)oxypyrido[3,4-d]pyrimidin-4-ol]",≤ 100,> 10000
"CN1CCN(c2ccc(N(C)c3ccc(Oc4nc(O)c5ccncc5n4)cc3)cc2)CC1 [Example 46, 2-[4-[N-methyl-4-(4-methylpiperazin-1-yl)anilino]phenoxy]pyrido[3,4-d]pyrimidin-4-ol]",100 to 1000,> 10000
"CN(c1ccc(Oc2nc(O)c3ccncc3n2)cc1)c1cccc(C#N)c1 [Example 40, 3-{[4-(4-hydroxy-pyrido[3,4-d]pyrimidin-2-yloxy)-phenyl]-methyl-amino}-benzonitrile]",100 to 1000,> 10000
"CCc1ccc(N(C)c2ccc(Oc3nc(O)c4ccncc4n3)cc2)cc1N1CCOCC1 [Example 59, 2-[4-(4-ethyl-N-methyl-3-morpholin-4-ylanilino)phenoxy]pyrido[3,4-d]pyrimidin-4-ol]",≤ 100,> 10000
"CN1CCCN(c2cccc(N(C)c3ccc(Oc4nc(O)c5ccncc5n4)cc3)c2)CC1 [Example 88, 2-[4-[N-methyl-3-(4-methyl-1,4-diazepan-1-yl)anilino]phenoxy]pyrido[3,4-d]pyrimidin-4-ol]",≤ 100,> 10000
"CN(c1ccc(Oc2nc(O)c3ccncc3n2)cc1)c1ccc(C2=CCOCC2)cc1 [Example 98, 2-[4-[4-(3,6-dihydro-2H-pyran-4-yl)-N-methylanilino]phenoxy]pyrido[3,4-d]pyrimidin-4-ol]",1000 to 10000,> 10000

# — patent US10112940B2, “Histone demethylase inhibitors” (Celgene Quanticel Research, Inc., priority 2014, dated 2018)
